Results on one molecule are retold here after patent publication US8685957B1 (Cubist Pharmaceuticals, Inc., priority 2012, dated 2014).

Structures are written as SMILES.

The nature of this data set: Hygroscopicity experiments by DVS (water vapor sorption). Conditions: relative to amorphous tazobactam arginine and amorphous tazobactam sodium. The class given is physicochemical. The procedure: Analysis by DVS was performed on a VTI SGA-100 water vapor sorption analyser using approximately 18-23 mg of each sample. Each sample was pre-dried at 60° C. for a maximum of 1 hour and then analyzed at 25° C. in 10% relative humidity (RH) steps from 5-95% (adsorption) and then 90-10% RH (desorption). The sample was equilibrated to each humidity level for a maximum of 3 hours or until constant weight was attained. Equilibrium criteria were set at less than 0.0050% weight change within 5 minutes.

Turning to `C[C@]1(Cn2ccnn2)[C@H](C(=O)O)N2C(=O)CC2S1(=O)=O` (stereo partly shown) [Tazobactam arginine polymorph Ia, tazobactam arginine], the hygroscopicity result is “low hygroscopicity”.
